Here are results for eleven compounds from patent US20220354949A1, “NOVEL COMPOUNDS” (XENIOPRO GmbH, priority 2018, published 2022).

Type in all cases: cell-based
The test system of assay [1] is TANOUE cells (human B cell leukemia cells). Briefly: Proliferation assay (alamarBlue) with TANOUE cells. Conditions: Homo sapiens, B-cell, compound at 20 μM, Table 63 (novel compounds), read-out: Activity Range: weighted arithmetic mean (AVEw) of normalized fluorescence intensity relative to DMSO basis level 1.0. The text has this:
(§1) The antiproliferative activities of compounds falling under formula (Ia), (Ib) and (Ic), respectively, were investigated on cells or cell lines originating from a disorder of the haematopoietic system, including the myeloid cell compartment and the lymphoid cell compartment (T-cells and B-cells), the neuroendocrine system, the cervix, the breast, the ovaries, the lung, the gastrointestinal tract, and the mucosal epithelium, as well as from the skin epithelium and from the muscle. To this end, HL-60 cells, NB-4 cells, HH cells, RPMI-8402 cells, TANOUE cells, TT cells, HeLa cells, MDA-MB-231 cells, FU-OV-1 cells, LOU-NH91 cells, 23132/87 cells, CAL-27 cells, BHY cells, SCC-25 cells, A-431 cells, human primary epidermal keratinocytes (HPEK), and C2C12 cells were seeded into 96-well plates suitable for fluorescence assays (CORNING #3598) at following initial cell numbers: 1000 cells per well for HL-60; 1000 cells per well for NB-4; 5000 cells per well for HH; 5000 cells per well for RPMI-8402; 1500 cells per well for TANOUE; 9000 cells per well for TT; 2000 cells per well for HeLa; 3000 cells per well for MDA-MB-231; 3000 cells per well for FU-OV-1; 4000 cells per well for LOU-NH91; 2000 cells per well for 23132/87; 2000 cells per well for CAL-27; 1500 cells per well for BHY; 1500 cells per well for SCC-25; 700 cells per well for A-431; 1000 cells per well for HPEK; 500 cells per well for C2C12. The cells were treated with compounds at indicated final concentrations (diluted from the 1000× stock-solutions in DMSO to a final DMSO concentration of 0.1% v/v in H2O (Water For Injection, WFI, Fisherscientific #10378939)) or with the empty carrier DMSO at 0.1% v/v as control for 5 days. At day 5 after starting the treatments the cells were subjected to the alamarBlue® Proliferation Assay (Bio-Rad Serotec GmbH, BUF012B) according to the protocol of the manufacturer. The readout was taken with a multi-well plate-reader in the fluorescence mode with applying a filter for excitation at 560 nm (band width 10 nm) and for emission at 590 nm (band width 10 nm). Control treatments for growth inhibition with commercial compounds such as Methotrexate (MTREX) and Resveratrol (RES) were included on every plate. Some of the test compounds of the present invention were obtained and applied as their salts. According cases are indicated in the column “Specification” in Table 55 to Table 92 and by their sum formula in Table 93.
(§2) The assays were performed in duplicate or more replicates of independent single experiments each containing a six-fold replicate for every condition. For every individual plate, the measured fluorescence intensity values of the conditions with compound treatment were normalized against the corresponding equally weighted arithmetic mean of the fluorescence intensity values of the six DMSO treated control wells in order to obtain the relative values to a baseline level of 1.0.
(§3) Two independent outlier analyses were performed according to the methods by Peirce and Chauvenet (Ross, Journal of Engineering Technology 2003, 1-12). Outliers confirmed by at least one of the methods were excluded from the calculations but not more than one value out of six per compound within a single experiment. The weighted arithmetic mean (here abbreviated as AVEw) for each compound was calculated from the normalized values over all independent replicates of the single experiments comprising the six replicates each. The corresponding standard deviation for the weighted arithmetic mean was calculated according to the method described by Bronstein et al. (Bronstein, Semendjajew, Musiol, Müihlig, Taschenbuch der Mathematik, 5th edition 2001 (German), publisher: Verlag Harri Deutsch, Frankfurt am Main and Thun) and was combined with the Gauß' error propagation associated with the performed calculation for the normalization. The resulting standard deviation is herein referred to as “combined standard deviation”. […]
For orientation: Resazurin is reduced to fluorescent resorufin, in cell work by metabolically active cells.

The test system of assay [2] is MDA-MB-231 cells (human breast carcinoma cells). Briefly: Proliferation assay (alamarBlue) with MDA-MB-231 cells. Conditions: Homo sapiens, compound at 20 μM, Table 69 (novel compounds), read-out: Activity Range: weighted arithmetic mean (AVEw) of normalized fluorescence intensity relative to DMSO basis level 1.0.
Description: as §1, §2, §3

Assay [3] relates to HH cells (human cutaneous T-cell lymphoma cells). Briefly: Proliferation assay (alamarBlue) with HH cells. Conditions: 20 μM, relative to DMSO basis level 1.0, Table 60 (compounds disclosed in PCT/EP2018/054686).
Description: as §1, §2, §3

Assay [4] deals with Notch signaling (human Notch1 receptor, hNotch1ΔE, CSL luciferase reporter in HeLa cells). Briefly: Notch reporter assay (dual luciferase, HeLa cells transfected with hNotch1ΔE). Conditions: compounds and controls at 10 μM. The text has this: The activation level of Notch signaling can be quantified in vitro reliably by measuring the expression levels of Notch specific target genes. This can be accomplished by the quantification of corresponding mRNA or protein of a particular Notch target gene. Alternatively, cells can be genetically modified to carry a luciferase gene as an artificial Notch target gene, which is expressed in dependence of Notch activity. In this setting, Notch signaling levels can be quantified by measuring the luciferase-derived bioluminescence values.
An according Notch-reporter assay, i.e. a luciferase-based luminescence readout, was used here to quantify the ability of the claimed compounds to augment Notch signaling in a cellular system. […] After 24 hours of transfection, the transfected cells were carefully detached from the dish using 0.5 mM EDTA in PBS and seeded into 96-well plates suitable for luminescence readouts (CORNING, #3610) at 10′000 cells per well. […] Directly after the lysis, first the Firefly and then the Renilla luciferase values were measured consecutively from the same well with a luminescence reader immediately after applying 15 μL per well each of the corresponding enzyme substrates needed to create the luminescence signals (Promega, Dual-Luciferase® Reporter Assay System, #E1910). […]
(A reporter such as luciferase makes a cellular process visible.)

Take `N#CN=C(N)c1ccc(Oc2ccc(C3CCCCC3)cc2)nc1` [XPW-0832, N′-cyano-6-(4-cyclohexylphenoxy)nicotinimidamide]: the activity at 20 µM in assay [1] and in assay [2] was 70 to 80% throughout.

Regarding `CN(C(c1ccc(Oc2ccc(C34CC5CC(CC(C5)C3)C4)cc2)cc1)C(F)(F)F)[S+]([O-])C(C)(C)C` (stereo not shown) [XPW-4642, N-(1-(4-(4-((3r,5r,7r)-adamantan-1-yl)phenoxy)phenyl)-2,2,2-trifluoroethyl)-N,2-dimethylpropane-2-sulfinamide], the activity at 20 µM in assay [2] fell in the range of 60 to 70%.

As for `NC1(c2ccc(Oc3ccc(C45CC6CC(CC(C6)C4)C5)cc3)nc2)COC1` [XPW-3052], the activity at 20 µM in assay [1] was 70 to 80%; in assay [2], 60 to 70%.

Regarding `NS(=O)(=O)C#Cc1ccccc1` [PES], the “Activity Range: weighted arithmetic mean (AVEw) of normalized fluorescence intensity, proliferation assay with HH cells” value in assay [3] was determined as 0.6 ± 0.1.

With `C[C@H](NC(=O)Cc1cc(F)cc(F)c1)C(=O)N[C@H](C(=O)OC(C)(C)C)c1ccccc1` [DAPT], the “Activity Range: weighted arithmetic mean (AVEw) of double-normalized Notch-reporter luminescence, relative to DMSO basis level of 1.0” value in assay [4] turned out to be 0.1 ± 0.0.

`CN(C)C(c1ccc(Oc2ccc(C34CC5CC(CC(C5)C3)C4)cc2)cc1)C(F)(F)F` (stereo not shown) [XPW-0042, 1-(4-(4-((3r,5r,7r)-adamantan-1-yl)phenoxy)phenyl)-2,2,2-trifluoro-N,N-dimethylethan-1-amine]: the activity at 20 µM in assay [1] and in assay [2] was 80 to 90% in each case.

In the case of `CN(C)C(C#N)c1ccc(Oc2ccc(C3CCCCC3)cc2)cc1` (stereo not shown) [XPW-0314, 2-(4-(4-cyclohexylphenoxy)phenyl)-2-(dimethylamino)acetonitrile], the activity at 20 µM in assay [1] was 40 to 60%. For the same compound, the “Activity Range: weighted arithmetic mean (AVEw) of double-normalized Notch-reporter luminescence, relative to DMSO basis level of 1.0” value in assay [4] is given as 2.0 ≤ AVEw.

As to `CN(O)C(c1ccc(Oc2ccc(C34CC5CC(CC(C5)C3)C4)cc2)cc1)C(F)(F)F` (stereo not shown) [XPW-0182, N-(1-(4-(4-((3r,5r,7r)-adamantan-1-yl)phenoxy)phenyl)-2,2,2-trifluoroethyl)-N-methyl hydroxylamine], the activity at 20 µM in assay [1] and in assay [2] was 40 to 60% each time.

Consider `CC(C)(C)[S+]([O-])NC(c1ccc(Oc2ccc(C34CC5CC(CC(C5)C3)C4)cc2)cc1)C(F)(F)F` (stereo not shown) [XPW-0902, N-(1-(4-(4-((3r,5r,7r)-adamantan-1-yl)phenoxy)phenyl)-2,2,2-trifluoroethyl)-2-methylpropane-2-sulfinamide], for which the activity at 20 µM in assay [1] and in assay [2] was 0 to 20% each time.

In the case of `COCCc1ccc(Oc2ccc(C(=O)N(C)O)cc2)cc1` [XPW-0675, N-hydroxy-4-(4-(2-methoxyethyl)phenoxy)-N-methylbenzamide], the activity at 20 µM in assay [1] and in assay [2] was 40 to 60% throughout.

Turning to `O=C(c1ccc(Oc2ccc(C3CCCCC3)cc2)nc1)N1CCOCC1` [XPW-2890, (6-(4-cyclohexylphenoxy)pyridin-3-yl)(morpholino)methanone], the activity at 20 µM in assay [1] fell in the range of 70 to 80%; in assay [2] it was 40 to 60%.
